Test system: Sarcoma-180
Assay: Pharmacological Test I: tumor weight in ICR mice subcutaneously transplanted with Sarcoma-180, oral administration
Type: in vivo
Conditions: Mus musculus, Sarcoma-180, 240 h, once a day for 7 consecutive days, tumor weight on 10th day after transplantation, read-out: ED50 (50% tumor inhibition dose, T/C = 0.5)
Description: Sarcoma-180 subcultured in an ascites of ICR mice was diluted with a physiological saline solution and subcutaneously transplanted into the backs of ICR mice in an amount of 2×10^7 cells each. Twenty-four hours after the transplantation, a test compound suspended in a 5% solution of gum arabic was orally administered to each of mice once a day for 7 consecutive days.
The solid tumor was isolated from under the dorsal skin of mice on the 10th day after the transplantation to measure the weight of the tumor. There was determined the ratio (T/C) of the weight of tumor (T) cut out from the group of mice treated with the test compound to the weight of tumor (C) from the group of mice not treated therewith. The 50% tumor inhibition dose (ED50 value) in which T/C is 0.5 was determined from the dose-response curve of dosage and the ratio (T/C).

SMILES: CCC(=O)OC[C@H]1O[C@@H](n2cc(F)c(=O)[nH]c2=O)C[C@@H]1OCc1cccs1
- ED50: 2 mg/kg

— patent US5047521A, “5-fluorouracil derivatives” (Otsuka Pharmaceutical Co., Ltd., priority 1986, dated 1991)
